Values of other authors, collected in patent publication US20260216162A1, “SELECTIVE FIASMA TREATMENT” (VALO HEALTH, INC., priority 2023, published 2026).

Assays:
[1] = tested on: acid sphyingomyelinase (ASMase); settings: final concentration of 10 µM, 30 minutes, 37° C.; normalized to control cells treated with the solvent alone

Row | SMILES | Residual ASMase Activity (%) [1] [%] | Log P
1 | Fc1ccc([C@@H]2CCNC[C@H]2COc2ccc3c(c2)OCO3)cc1 [Paroxetine] | 31.7 | 3.9
2 | CNCCC(Oc1ccc(C(F)(F)F)cc1)c1ccccc1 (stereo not drawn) [Fluoxetine] | 13.0 | –
